Converted amounts (≈) assume the structure as drawn. Where two headings read alike, the source gives them in different places.
Tests used:
[1] = tested on: Staphylococus aureus FDA 209-P JC-1; experiment: minimum inhibitory concentration, agar plate dilution method; type: cell-based; settings: Staphylococcus aureus, FDA209; S. aureus FDA 209-P JC-1; inoculated amount of cells 10^6 CFU/ml; Muller-Hinton agar; read-out: minimum inhibitory concentration (M.I.C.)
[2] = tested on: Escherichia coli ML 4707; experiment: as above; type: cell-based; settings: ML4707, E. coli ML 4707, inoculated amount of cells 10^6 CFU/ml, Muller-Hinton agar, read-out: minimum inhibitory concentration (M.I.C.)
[3] = tested on: Klebsiella pneumoniae No. 42; experiment: as above; type: cell-based
[4] = tested on: Proteus vulgaris No. 33; experiment: as above; type: cell-based
[5] = tested on: Serratia marcescens No. 16-2; experiment: as above; type: cell-based
[6] = tested on: Enterobacter cloacae Nek 39; experiment: as above; type: cell-based
[7] = tested on: Acinetobacter calcoaceticus No. 4; experiment: as above; type: cell-based
[8] = tested on: Pseudomonas aeruginosa K-13; experiment: as above; type: cell-based
[9] = tested on: Pseudomonas aeruginosa Y-1; experiment: as above; type: cell-based
[10] = tested on: Pseudomonas cepacia 23; experiment: as above; type: cell-based
[11] = tested on: Escherichia coli ML 4707; experiment: infection-preventive effects in mice (intraperitoneal infection, survival); type: in vivo, JCL:JCR type male mice; settings: ML4707, ip, 168 h, E. coli ML 4707, 1.1 × 10^6 cells/mouse i.p., no mucin, compound hypodermically 1 hour after infection, 7-day survival
[12] = tested on: Pseudomonas aeruginosa K-13; experiment: as above; type: in vivo, JCL:JCR type male mice; settings: K13, ip, 168 h
[13] = tested on: Pseudomonas aeruginosa Y-1; experiment: as above; type: in vivo, JCL:JCR type male mice; settings: Y1, ip, 168 h
[14] = tested on: Staphyloccocus aureus Smith; experiment: as above; type: in vivo, JCL:JCR type male mice; settings: Staphylococcus aureus, ip, 168 h; S. aureus Smith, 7.7 × 10^7 cells/mouse i.p., no mucin; compound hypodermically 1 hour after infection; 7-day survival
[15] = K. pneumoniae No. 42, inoculated amount of cells 10^6 CFU/ml, Muller-Hinton agar, read-out: minimum inhibitory concentration (M.I.C.)
[16] = P. vulgaris No. 33, inoculated amount of cells 10^6 CFU/ml, Muller-Hinton agar, read-out: minimum inhibitory concentration (M.I.C.)
[17] = NO.162, S. marcescens No. 16-2, inoculated amount of cells 10^6 CFU/ml, Muller-Hinton agar, read-out: minimum inhibitory concentration (M.I.C.)
[18] = NEK39, E. cloacae Nek 39, inoculated amount of cells 10^6 CFU/ml, Muller-Hinton agar, read-out: minimum inhibitory concentration (M.I.C.)
[19] = A. calcoaceticus No. 4, inoculated amount of cells 10^6 CFU/ml, Muller-Hinton agar, read-out: minimum inhibitory concentration (M.I.C.)
[20] = K13, P. aeruginosa K-13, inoculated amount of cells 10^6 CFU/ml, Muller-Hinton agar, read-out: minimum inhibitory concentration (M.I.C.)
[21] = Y1, P. aeruginosa Y-1, inoculated amount of cells 10^6 CFU/ml, Muller-Hinton agar, read-out: minimum inhibitory concentration (M.I.C.)
[22] = Burkholderia cepacia, P. cepacia 23, inoculated amount of cells 10^6 CFU/ml, Muller-Hinton agar, read-out: minimum inhibitory concentration (M.I.C.)
[23] = P. aeruginosa K-13, 3.0 × 10^4 cells/mouse i.p., with mucin, compound hypodermically 1 hour after infection, 7-day survival, read-out: ED50
[24] = P. aeruginosa Y-1, 4.0 × 10^5 cells/mouse i.p., with mucin, compound hypodermically 1 hour after infection, 7-day survival, read-out: ED50

| Structure (SMILES) | MIC [1] [µg/mL] | MIC [2] [µg/mL] | MIC [3, 15] [µg/mL] | MIC [4, 16] [µg/mL] | MIC [5, 17] [µg/mL] | MIC [6, 18] [µg/mL] | MIC [7, 19] [µg/mL] | MIC [8, 20] [µg/mL] | MIC [9, 21] [µg/mL] | MIC [10, 22] [µg/mL] | ED50 [11] [mg/kg] | ED50 [12, 23] [mg/kg] | ED50 [13, 24] [mg/kg] | ED50 [14] [mg/kg] | other results |
| --- | --- | --- | --- | --- | --- | --- | --- | --- | --- | --- | --- | --- | --- | --- | --- |
| C[n+]1ccc(SCC2=C(C(=O)[O-])N3C(=O)[C@@H](NC(=O)/C(=N\OCc4cc(=O)c(O)cn4O)c4csc(N)n4)[C@H]3SC2)c2c1CCC2 [Example 19, (6R, 7R)-7-[(Z)-2-(2-aminothiazol-4-yl)-2-(1,5-dihydroxy-4-pyridon-2-ylmethoxyimino)acetamido]-3-(2,3-cyclopenteno-1-methylpyridinium-4-ylthiomethy)-3-cephem-4-carboxylate] | 12.5 (≈ 18.2 µM) | 0.05 (≈ 0.0729 µM) | 0.1 (≈ 0.146 µM) | 0.2 (≈ 0.292 µM) | 1.56 (≈ 2.27 µM) | 0.2 (≈ 0.292 µM) | 6.25 (≈ 9.11 µM) | 1.56 (≈ 2.27 µM) | 0.78 (≈ 1.14 µM) | 0.39 (≈ 0.569 µM) | 0.077 | 9.6 | 7.8 |  |  |
| CO/N=C(\C(=O)N[C@@H]1C(=O)N2C(C(=O)O)=C(COC(C)=O)CS[C@H]12)c1csc(N)n1 [CTX, cefotaxime, reference compound] | 3.13 (≈ 6.87 µM) | ≤ 0.025 | 0.1 (≈ 0.22 µM) | 0.05 (≈ 0.11 µM) | 6.25 (≈ 13.7 µM) | 3.13 (≈ 6.87 µM) | 25 (≈ 54.9 µM) | 25 (≈ 54.9 µM) | 12.5 (≈ 27.4 µM) | 3.13 (≈ 6.87 µM) | 0.095 | > 100 | > 200 | 3.1 |  |
| NC(=O)c1cc[n+](CC2=C(C(=O)O)N3C(=O)[C@@H](NC(=O)[C@@H](c4ccccc4)S(=O)(=O)[O-])[C@H]3SC2)cc1 [CFS, cefsulodin, reference compound] | 3.13 (≈ 5.88 µM) | 50 (≈ 93.9 µM) | > 100 |  | > 100 | > 100 | 50 (≈ 93.9 µM) | 3.13 (≈ 5.88 µM) | 1.56 (≈ 2.93 µM) | > 100 | > 100 | 39 | 13 |  |  |
| C[n+]1ccc(SCC2=C(C(=O)[O-])N3C(=O)[C@@H](NC(=O)/C(=N\OCc4cc(=O)c(O)cn4O)c4csc(N)n4)[C@H]3SC2)cc1 [Example 18, (6R, 7R)-7-[(Z)-2-(2-aminothiazol-4-yl)-2-(1,5-dihydroxy-4-pyridon-2-ylmethoxyimino)acetamido]-3-(1-methylpyridinium-4-ylthiomethyl)-3-cephem-4-carboxylat] | 6.25 (≈ 9.68 µM) | ≤ 0.025 | 0.05 (≈ 0.0774 µM) | 0.1 (≈ 0.155 µM) | 0.78 (≈ 1.21 µM) | 0.39 (≈ 0.604 µM) | 3.13 (≈ 4.85 µM) | 0.78 (≈ 1.21 µM) | 0.2 (≈ 0.31 µM) | 0.2 (≈ 0.31 µM) | 0.034 | 13 | 2 | 2.9 |  |
| CC(C)(O/N=C(\C(=O)N[C@@H]1C(=O)N2C(C(=O)[O-])=C(C[n+]3ccccc3)CS[C@H]12)c1csc(N)n1)C(=O)O [CAZ, ceftazidime, reference compound] | 12.5 (≈ 22.9 µM) | 0.2 (≈ 0.366 µM) |  |  |  |  |  |  |  |  | 0.73 |  |  | 17 | MIC ([3]; NO.42, read-out: minimum inhibitory concentration (M.I.C.)): 0.39 µg/mL (≈ 0.714 µM); MIC ([4]; NO.33, read-out: minimum inhibitory concentration (M.I.C.)): 0.1 µg/mL (≈ 0.183 µM); MIC ([5]; NO.162, read-out: minimum inhibitory concentration (M.I.C.)): 1.56 µg/mL (≈ 2.85 µM); MIC ([6]; NEK39, read-out: minimum inhibitory concentration (M.I.C.)): 1.56 µg/mL (≈ 2.85 µM); MIC ([7]; NO.4, read-out: minimum inhibitory concentration (M.I.C.)): 6.25 µg/mL (≈ 11.4 µM); MIC ([8]; K13, read-out: minimum inhibitory concentration (M.I.C.)): 3.13 µg/mL (≈ 5.73 µM); MIC ([9]; Y1, read-out: minimum inhibitory concentration (M.I.C.)): 1.56 µg/mL (≈ 2.85 µM); MIC ([10]; Burkholderia cepacia, 23, read-out: minimum inhibitory concentration (M.I.C.)): 1.56 µg/mL (≈ 2.85 µM); ED50 [12]: 31 mg/kg; ED50 [13]: 16 mg/kg |
| Cn1nnnc1SCC1=C(C(=O)O)N2C(=O)[C@@H](NC(=O)/C(=N\OCc3cc(=O)c(O)cn3O)c3csc(N)n3)[C@H]2SC1 [Example 5, (6R, 7R)-7-[(Z)-2-(2-aminothiazol-4-yl)-2-(1,5-dihydroxy-4-pyridon-2-ylmethoxyimino)acetamido]-3(1-methyl-1H-tetrazol-5-ylthiomethyl)-3-cephem-4carboxylic acid] | 50 (≈ 78.5 µM) | ≤ 0.025 | ≤ 0.025 | ≤ 0.025 | 0.39 (≈ 0.613 µM) | 0.39 (≈ 0.613 µM) | 1.56 (≈ 2.45 µM) | 0.1 (≈ 0.157 µM) | 0.1 (≈ 0.157 µM) | 0.05 (≈ 0.0785 µM) | 0.12 | 18.9 |  |  |  |
| Cc1cc(SCC2=C(C(=O)O)N3C(=O)[C@@H](NC(=O)/C(=N\OCc4cc(=O)c(O)cn4O)c4csc(N)n4)[C@H]3SC2)n2nc(C(=O)O)nc2n1 [Example 4, (6R, 7R)-7-[(Z)-2-(2-aminothiazol-4-yl)-2-(1,5-dihydroxy-4-pyridon-2-ylmethoxyimino)acetamido]-3(2-carboxy-5-methyl-s-triazolo[1,5-a]pyrimidin-7-ylthiomethyl)-3-cephem-4-carboxylic acid] | 12.5 (≈ 17.1 µM) | 0.1 (≈ 0.137 µM) | 0.2 (≈ 0.274 µM) | 0.1 (≈ 0.137 µM) | 0.39 (≈ 0.534 µM) | 0.39 (≈ 0.534 µM) | 12.5 (≈ 17.1 µM) | 0.2 (≈ 0.274 µM) | 0.39 (≈ 0.534 µM) | 0.2 (≈ 0.274 µM) | 0.16 | 12 | 4 | 8.7 |  |
| Nc1nc(/C(=N/OCc2cc(=O)c(O)cn2O)C(=O)N[C@@H]2C(=O)N3C(C(=O)O)=C(CSc4nnnn4CCO)CS[C@H]23)cs1 [Example 6] | 25 (≈ 37.5 µM) | ≤ 0.025 | 0.05 (≈ 0.075 µM) | 0.05 (≈ 0.075 µM) | 0.39 (≈ 0.585 µM) | 0.78 (≈ 1.17 µM) | 3.13 (≈ 4.69 µM) | 0.2 (≈ 0.3 µM) | 0.1 (≈ 0.15 µM) | 0.1 (≈ 0.15 µM) | 0.13 | 4.6 | 1.4 | 42 |  |

— patent US4822786A, “Cephalosporin compounds, and antibacterial agents” (Kaken Pharmaceutical Co., Ltd., priority 1986, dated 1989)
